One series concerns the target T1, σ-1 receptor (Mus musculus, UniProt O55242).
T1 construct: from tissue; host or cells: whole animal (mice), endogenous receptor
Conditions: pre-treatment of mice; cited from earlier work.

A short description of series [1]: Binding of miR-107 to MENPs. Type of series: physicochemical. Conditions: 100 nM miR-107, 100 μg MENPs, PBS pH 7.4, 30 minutes. On the procedure:
(§1) FIGS. 2A-2B provide miR-107 binding and release. A) % binding of miR-107 with MENP with respect to different concentrations; B) Release kinetics of miR-107 from MENP surface as a function of externally applied alternating current magnetic field strength (60 and 80 Oe) at different time points (10, 20 and 30 min).
(§2) Binding kinetics with respect to different concentrations of miR-107 was performed using 100 μg of MENPs (FIG. 2A). Sample were incubated in phosphate buffered saline (PBS) (pH-7.4) and kept on vertical rotator under constant rotation (200 rpm) for 30 minutes. […] Release kinetics of miR-107 from MENPs was studied using UV spectroscopy at 260 nm. 100 nM of miR-107 was incubated with 100 μg of MENPs in 1 mL PBS (pH 7.4) for 30 mins and its release kinetics performed using alternating current magnetic field via electromagnetic coil at various time points (i.e., 10, 20, and 30 minutes).

The nature of series [2]: Release of miR-107 from MENPs under alternating current magnetic field (UV spectroscopy at 260 nm). Type of series: physicochemical. Conditions: 30 mins. How it is done:
as §1, §2

The subject of series [3] is in-vitro BBB model (brain microvascular endothelial cells, astrocytes and pericytes). The series is described as follows: In-vitro BBB model integrity (TEER). As to conditions: free WA 2 μM in apical chamber, external magnetic field 0.8 T, 3 h. Type of series: cell-based, human. How it is done: (§3) FIGS. 3A-3B provide: A) Effect of WA and MENP on in-vitro BBB integrity: WA (2 μM) and MENPs (100 μg) were added in the upper chamber of the BBB model with magnet (0.8 T) placed underneath the culture plate for 3 h duration. After treatment, Transepithelial Electrical Resistance (TEER) values were calculated and compared with control; B) Aβ1-40 ELISA from supernatant from SHAPP cells: To study WA (2 μM) efficacy and BBB permeability without MENPs, Aβ1-40 specific enzyme-linked immunosorbent assay (ELISA) was performed using supernatant collected from the basal side of the BBB trans-well where SHAPP cells were seeded at the bottom of culture plate. (n=3; NS-Not Significant.)
(§4) In-vitro BBB model was developed using brain microvascular endothelial cells, astrocytes and pericytes. The integrity of BBB was examined by measuring the TEER values before and after addition of free WA (2 μM) and free MENPs (100 μg) to the apical chamber of in vitro BBB model.
Preparation and validation of BBB integrity: Established in vitro BBB model can be used. The BBB model can be constructed using primary endothelial cells (HBMEC), pericytes (HMVP) and astrocytes (HA). BBB formation and intactness can be determined by measuring the TEER using the REMS AutoSampler BBB device and permeability to fluorescein isothiocyanate-dextran (FITC dextran). […]

The subject of series [4] is Aβ-production in SH-APP cells. The series is described as follows: HIV-induced β-amyloid production in SH-APP cells by flow cytometry. Type of series: cell-based, human. Conditions: HIV 100 ng 7 days, WA 2 μM 48 hours, Aβ 1-40 specific antibody. How it is done:
FIGS. 7A-7D show quantitative analysis of β-amyloid production after 7 days of HIV infection and 48 hours of WA treatment (2 μM) on SH-APP (neuroblastoma cell line) using flow cytometry. An increase in β-amyloid production is observed in cells treated with B) HIV-100 ng; compared to A) Control.

For the next series, the system named is CHME-5 cells. Briefly: XTT cytotoxicity assay in CHME-5 cells. As to conditions: 1 μM WA, 48 hours. Type of series: cell-based. How it is done:
(§5) FIGS. 6A-6C show Effect of WA on HIV-1 suppression and its cytotoxicity in microglial (CHME-5) cell±HIV. […] (A) p24 study; (B) LTR and (C) Cytotoxicity study: XTT assay was performed on WA treated CHME-5 cells (n=3; *, p≤0.05; ****, p≤0.001; NS-Not Significant).
(§6) Human microglial cells (CHME-5) were infected with HIV and treated with different concentrations of WA (0.5 and 1 μM). Seven days post-infection (dpi), culture supernatant was used for p24 ELISA and cell pellet was used for the […] (LTR) measurement using quantitative real-time PCR.
On the technique in general: Formazan colour is commonly taken as a measure of viable cells.

Series [5] deals with Aβ-secretion in SH-APP cells. The series is described as follows: WA BBB permeability without MENPs: Aβ1-40 ELISA of SH-APP cells in the basal chamber of the BBB trans-well. Type of series: cell-based, human. On the procedure: as §3, §4
In general terms: An ELISA detects its analyte on a solid surface through an enzyme-linked reagent.

The next series deals with HIV-1. Briefly: HIV infection of CHME-5 microglial cells (p24 ELISA, LTR quantitative real-time PCR). As to conditions: WA 0.5 and 1 μM, 7 dpi. Type of series: cell-based. How it is done: as §5, §6
Series [6] deals with Aβ secretion by SH-APP cells. The series is described as follows: Aβ 1-40 ELISA of culture supernatants of WA treated SH-APP cells. Type of series: cell-based, human. How it is done: (n=3; *, p≤0.05; NS-Not Significant).
Human neuroblastoma cells transfected with APP gene (SH-APP) were cultured with different concentrations of WA (0.5 to 2.5 μM) and the culture supernatants were tested for Aβ 1-40 by ELISA.

The test system of another series is HIV. The series is described as follows: HIV LTR detection in HIV-exposed SH-APP cells. As to conditions: WA 2 μm, HIV 100 ng, 1 dpi; 30,000 copies with HIV alone. Type of series: cell-based. An excerpt: (n=3; *, p≤0.05; **, p≤0.01; and ***, p≤0.001.)
AβPP-transfected SH-APP cells are susceptible to HIV infection.

For another series, the system named is SH-APP cells. Briefly: MTT cytotoxicity assay in SH-APP cells. Type of series: cell-based, human. As to conditions: WA 0.5 to 2.5 μM, 48 hours.

Broadly, the cell viability is a per cent measure of how many cells are alive, often set against a control. A low value points to more harm to the cells.

Entries after “also recorded” stand apart in the source; their conditions may differ.

T1 sequence (O55242 whole entry): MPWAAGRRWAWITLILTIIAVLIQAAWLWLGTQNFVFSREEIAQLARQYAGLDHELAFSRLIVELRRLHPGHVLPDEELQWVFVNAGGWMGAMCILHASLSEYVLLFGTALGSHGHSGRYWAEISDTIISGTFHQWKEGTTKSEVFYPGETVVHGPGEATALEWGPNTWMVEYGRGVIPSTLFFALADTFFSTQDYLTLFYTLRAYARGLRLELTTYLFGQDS

For `CN1CCN(CCc2ccc(Cl)c(Cl)c2)CC1.Cl.Cl` [BD1063, 1-[2-(3,4-Dichlorophenyl)ethyl]-4-methylpiperazine dihydrochloride], on σ-1 receptor, the cocaine-induced convulsions entry is “significantly attenuated” and the “cocaine-induced locomotor stimulatory effects” value is “significantly attenuated”.

As for “miR-107: microRNA 107, inhibitor of BACE-1 expression; SEQ ID NO: 1 (pre-miRNA), SEQ ID NO: 2 (mature) (AGCAGCAUUGUACAGGGCUAUCA; listed as RNA, chemistry not given here; listed as Homo sapiens)”, the “maximum miR-107 binding to MENPs” value in series [1] is given as 70%. The “release of miR-107 from MENPs” value is listed as 75% in series [2] (60 Oe alternating current magnetic field) and about 100% in series [2] (100 Hz, 80 Oe alternating current magnetic field).

Regarding `CC1=C(CO)C(=O)O[C@@H]([C@@H](C)[C@H]2CC[C@H]3[C@@H]4C[C@H]5O[C@]56[C@@H](O)C=CC(=O)[C@]6(C)[C@H]4CC[C@]23C)C1` [WA, 5,6-Epoxy-4,27-dihydroxy-1-oxowitha-2,24-dienolide], the “TEER values (BBB integrity)” value in series [3] is “no difference in TEER values”. Also, the “HIV-induced Aβ levels” value in [4] is “significantly decreased”. For the same molecule, the cell viability in the series with CHME-5 cells is over 80%. Moreover, the “Aβ-secretion in SH-APP cells in basal chamber vs untreated control” value in series [5] (WA 2 μM without MENP in the apical chamber) is listed as “no changes in the Aβ-secretion”. Moreover, the “crossing of the BBB” value in series [5] (free WA 2 μM, not bound to MENP, apical chamber) is “could not cross the BBB”. Moreover, the “HIV-1 replication, LTR levels” value with HIV-1 (cell pellet) is listed as “significant suppression”. The “HIV-1 replication, p24 levels” value in the series with HIV-1 (culture supernatant) is “significant suppression”. Moreover, the “β-Amyloid production (Aβ1-40 ELISA)” value in series [6] (2 µM WA) is “significantly attenuates”. Moreover, in series [6] (WA 0.5 to 2.5 μM), the “Aβ secretion (Aβ 1-40)” value is reported as “dose dependent decrease”. For the same molecule, the “HIV induced LTR copies” value in the series with HIV came to 400 copies. In addition, the cytotoxicity result in the series on SH-APP cells is listed as “do not show any cytotoxic effects; also recorded: no significant cytotoxicity”.

The record behind these values is US10213507B2, “Compositions and methods for treating HIV-associated neurocognitive disorders” (THE FLORIDA INTERNATIONAL UNIVERSITY BOARD OF TRUSTEES, priority 2017, dated 2019).
